According to ChEMBL document CHEMBL1142054, “QSAR-by-NMR: quantitative insights into structural determinants for binding affinity by analysis of 1H/15N chemical shift differences in MMP-3 ligands” (Bioorg Med Chem Lett, 2005):

Tests used:
Neutrophil collagenase = Neutrophil collagenase (Homo sapiens, UniProt P22894); test: Binding affinity for human Matrix metalloprotease-8
Stromelysin-1 [1] = biological target: T1, Stromelysin-1 (Homo sapiens, UniProt P08254); test: (§1) Binding affinity for human Matrix metalloprotease-3
Target sequence in this assay (P08254 whole entry): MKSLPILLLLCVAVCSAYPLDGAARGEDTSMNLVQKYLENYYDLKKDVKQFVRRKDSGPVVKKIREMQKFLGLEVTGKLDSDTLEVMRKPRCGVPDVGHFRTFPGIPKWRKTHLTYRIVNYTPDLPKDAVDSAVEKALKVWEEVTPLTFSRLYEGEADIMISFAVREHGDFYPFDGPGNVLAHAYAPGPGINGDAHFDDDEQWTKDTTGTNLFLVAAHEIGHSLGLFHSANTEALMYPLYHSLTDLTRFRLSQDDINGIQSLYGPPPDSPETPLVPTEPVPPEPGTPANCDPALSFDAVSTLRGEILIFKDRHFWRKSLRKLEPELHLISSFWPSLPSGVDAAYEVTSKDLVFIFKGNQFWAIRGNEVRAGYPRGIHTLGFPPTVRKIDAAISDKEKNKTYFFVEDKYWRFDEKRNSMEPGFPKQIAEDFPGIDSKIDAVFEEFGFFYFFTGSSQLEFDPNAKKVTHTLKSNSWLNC

Stromelysin-1 [2] = biological target: T1, Stromelysin-1; test: as §1; remark: listed apart in the source
Target sequence in this assay (P08254 100-477 limits assumed): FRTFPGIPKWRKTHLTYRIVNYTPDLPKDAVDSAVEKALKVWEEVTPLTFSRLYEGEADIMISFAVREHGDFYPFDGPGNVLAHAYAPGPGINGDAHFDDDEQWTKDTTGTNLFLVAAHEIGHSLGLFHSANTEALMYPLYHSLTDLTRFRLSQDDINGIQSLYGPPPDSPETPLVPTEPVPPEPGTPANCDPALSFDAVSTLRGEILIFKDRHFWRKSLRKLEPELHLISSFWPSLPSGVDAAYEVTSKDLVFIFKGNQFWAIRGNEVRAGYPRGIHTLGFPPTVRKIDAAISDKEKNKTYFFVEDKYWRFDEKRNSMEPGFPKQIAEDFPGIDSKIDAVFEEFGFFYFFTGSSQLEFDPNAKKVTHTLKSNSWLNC

Chain of Neutrophil collagenase (P22894 whole entry): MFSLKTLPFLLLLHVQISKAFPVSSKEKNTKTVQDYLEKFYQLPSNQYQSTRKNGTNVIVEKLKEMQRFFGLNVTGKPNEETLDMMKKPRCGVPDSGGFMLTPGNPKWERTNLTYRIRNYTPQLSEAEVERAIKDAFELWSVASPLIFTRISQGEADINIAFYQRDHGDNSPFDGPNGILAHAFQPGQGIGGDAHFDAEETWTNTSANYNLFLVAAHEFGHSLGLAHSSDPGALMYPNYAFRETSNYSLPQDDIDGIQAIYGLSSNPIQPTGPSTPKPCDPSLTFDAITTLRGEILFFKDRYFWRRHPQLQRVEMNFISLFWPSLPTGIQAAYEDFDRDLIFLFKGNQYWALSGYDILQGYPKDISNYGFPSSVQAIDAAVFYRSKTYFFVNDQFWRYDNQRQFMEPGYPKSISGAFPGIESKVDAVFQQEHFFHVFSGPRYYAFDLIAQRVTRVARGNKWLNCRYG

SMILES | IC50 (Neutrophil collagenase) | IC50 (Stromelysin-1 [1]) | Concentration (Stromelysin-1 [2])
O=C(O)[C@H]1Cc2ccccc2CC1S(=O)(=O)c1ccc(Cl)cc1 (some centres not stated) | – | – | 100 nM
O=C(O)[C@H]1Cc2ccccc2CC1S(=O)(=O)c1ccc(F)cc1 (some centres not stated) | – | – | 400 nM
N#Cc1ccc(-c2ccc(S(=O)(=O)C3Cc4ccccc4C[C@@H]3C(=O)O)cc2)cc1 (some centres not stated) | – | – | 1000 nM

Second part, the compound after the results:

IC50 (Neutrophil collagenase) | IC50 (Stromelysin-1 [1]) | Concentration (Stromelysin-1 [2]) | SMILES
10 nM | 500 nM | – | O=C(O)[C@H]1Cc2ccccc2CC1S(=O)(=O)c1ccc(-c2ccccc2)cc1 (some centres not stated)
– | – | 50 nM | O=C(O)[C@H]1Cc2ccccc2CC1S(=O)(=O)c1ccc(CCc2ccccc2)cc1 (some centres not stated)
– | – | 200 nM | O=C(O)[C@H]1Cc2ccccc2CC1S(=O)(=O)c1ccc(Oc2ccccc2)cc1 (some centres not stated)
